Earlier results, collected in patent publication US7393545B2, “Lipstatin derivative—soluble fiber tablets” (priority 1999, dated 2008).

Assays:
[1] = diet-induced obese rats, 27 mg/kg/day
pancreatic lipase = biological target: T1, pancreatic lipase (Homo sapiens, UniProt P16233)
T1 sequence (P16233 17-465): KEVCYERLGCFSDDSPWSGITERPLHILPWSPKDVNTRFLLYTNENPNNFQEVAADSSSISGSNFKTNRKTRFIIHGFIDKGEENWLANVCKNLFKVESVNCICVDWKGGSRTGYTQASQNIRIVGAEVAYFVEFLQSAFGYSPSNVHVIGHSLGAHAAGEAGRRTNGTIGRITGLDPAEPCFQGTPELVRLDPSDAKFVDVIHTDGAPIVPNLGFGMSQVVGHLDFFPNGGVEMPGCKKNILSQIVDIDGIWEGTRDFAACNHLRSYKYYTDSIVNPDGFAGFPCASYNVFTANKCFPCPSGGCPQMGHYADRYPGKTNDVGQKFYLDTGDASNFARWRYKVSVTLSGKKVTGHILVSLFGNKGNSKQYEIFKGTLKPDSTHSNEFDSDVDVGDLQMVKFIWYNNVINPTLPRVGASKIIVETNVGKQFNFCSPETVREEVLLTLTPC

[2] = in vivo
[3] = first year of a 2 year study, 228 patients, 3× daily, mildly hypocaloric diet
[4] = placebo-controlled clinical studies, over 5000 obese patients

Structure (SMILES): CCCCCCCCCCC[C@@H](C[C@@H]1OC(=O)[C@H]1CCCCCC)OC(=O)[C@H](CC(C)C)NC=O [Orlistat, tetrahydrolipostatin]
- decrease in carcass fat [1]: 54 g
- decrease in liver weight [1]: 13%
- increase in large intestine weight [1]: 38%
- increase in small intestine weight [1]: 27%
- loss of body weight [1]: 65 g
- retroperitoneal (RP) pad weight [1]: decreases
- fat absorption ([1]; decreased from 93-94%): 17-19%
- inhibition of pancreatic lipase (pancreatic lipase): potent and selective inhibitor
- fat contained in food whose absorption is prevented [2]: about one third
- more weight lost than the placebo controlled group [3]: 65%
- share of patients having lost >10% of their bodyweight [3]: ⅓
- patients who lost 10% or more body weight compared to placebo and diet alone (first year of a two year study, moderately reduced calorie diet): 3 times
- adverse side-effects [4]: no major adverse side-effects
- weight loss [4]: significant weight loss
